In the CheMixHub viscosity set:

Experiment: xn = mol fraction of the nth substance listed

CCCCCCCCCCC + CCCCCCCO
viscosity [mPa·s], 100 kPa
Conditions | x1 = 0.0999 | x1 = 0.1998 | x1 = 0.3007 | x1 = 0.399 | x1 = 0.5004 | x1 = 0.5988 | x1 = 0.7002 | x1 = 0.8004 | x1 = 0.8983
293.15 K | 5.317 | 4.102 | 3.124 | 2.518 | 2.05 | 1.798 | 1.547 | 1.383 | 1.239
298.15 K | 4.517 | 3.516 | 2.713 | 2.219 | 1.831 | 1.626 | 1.407 | 1.263 | 1.137
303.15 K | 3.86 | 3.037 | 2.378 | 1.975 | 1.654 | 1.47 | 1.284 | 1.158 | 1.048
308.15 K | 3.32 | 2.641 | 2.202 | 1.816 | 1.537 | 1.342 | 1.176 | 1.063 | 0.968
313.15 K | 2.876 | 2.315 | 1.956 | 1.633 | 1.369 | 1.229 | 1.078 | 0.981 | 0.896
318.15 K | 2.509 | 2.089 | 1.751 | 1.477 | 1.247 | 1.128 | 0.994 | 0.908 | 0.833
323.15 K | 2.251 | 1.86 | 1.575 | 1.34 | 1.14 | 1.04 | 0.918 | 0.843 | 0.777

CCOC(=O)CCC(=O)OCC + CCCCCCO
293.15 K, 100 kPa
Conditions | viscosity [mPa·s]
x1 = 0.4999 | 2.495
x1 = 0.7999 | 2.495

OCCCl + CCCCCCO
viscosity [mPa·s], 101.33 kPa
Conditions | x1 = 0.097 | x1 = 0.1953 | x1 = 0.2962 | x1 = 0.3953 | x1 = 0.5314 | x1 = 0.5962 | x1 = 0.7121 | x1 = 0.7968 | x1 = 0.8982
298.15 K | 3.93 | 3.7 | 3.544 | 3.406 | 3.241 | 3.175 | 3.057 | 2.983 | 2.921
303.15 K | 3.33 | 3.18 | 3.068 | 2.909 | 2.78 | 2.718 | 2.615 | 2.551 | 2.529
308.15 K | 2.824 | 2.68 | 2.572 | 2.494 | 2.38 | 2.329 | 2.276 | 2.237 | 2.208

NC=O + CCCCCO
298.15 K, 100 kPa
Conditions | viscosity [mPa·s]
x1 = 0.05608 | 3.38
x1 = 0.1142 | 3.39
x1 = 0.2182 | 3.48
x1 = 0.2483 | 3.57
x1 = 0.3487 | 3.73
x1 = 0.3776 | 3.77
x1 = 0.4665 | 3.98
x1 = 0.4951 | 4.02
x1 = 0.5681 | 4.15
x1 = 0.6207 | 4.23
x1 = 0.7099 | 4.32
x1 = 0.7533 | 4.33
x1 = 0.8001 | 4.23
x1 = 0.8518 | 4.07
x1 = 0.9349 | 3.69

OCCCl + CCCCCO
viscosity [mPa·s], 101.33 kPa
Conditions | x1 = 0.0959 | x1 = 0.194 | x1 = 0.2912 | x1 = 0.3946 | x1 = 0.4922 | x1 = 0.5939 | x1 = 0.6962 | x1 = 0.8018 | x1 = 0.8986
298.15 K | 3.401 | 3.282 | 3.2 | 3.138 | 3.088 | 3.045 | 3.02 | 2.98 | 2.92
303.15 K | 2.941 | 2.86 | 2.78 | 2.731 | 2.705 | 2.69 | 2.661 | 2.62 | 2.56
308.15 K | 2.58 | 2.5 | 2.441 | 2.401 | 2.384 | 2.378 | 2.34 | 2.323 | 2.25

CCCCCCCCCCC + CCCCO
viscosity [mPa·s], 100 kPa
Conditions | x1 = 0.1003 | x1 = 0.1998 | x1 = 0.3006 | x1 = 0.4 | x1 = 0.5006 | x1 = 0.6013 | x1 = 0.6989 | x1 = 0.8018 | x1 = 0.8991
293.15 K | 2.391 | – | 1.749 | 1.549 | 1.398 | – | 1.223 | – | –
298.15 K | 2.107 | – | – | 1.391 | 1.264 | 1.177 | 1.119 | – | –
303.15 K | – | – | 1.399 | 1.257 | 1.15 | 1.076 | 1.028 | 0.997 | 0.974
308.15 K | – | – | 1.261 | 1.141 | 1.05 | 0.99 | 0.949 | 0.923 | –
313.15 K | – | 1.288 | 1.141 | 1.04 | 0.964 | 0.913 | 0.879 | 0.857 | 0.838
318.15 K | – | 1.163 | 1.037 | 0.952 | 0.888 | 0.845 | 0.817 | 0.798 | 0.781
323.15 K | 1.199 | 1.054 | 0.947 | 0.874 | 0.82 | 0.785 | 0.761 | 0.746 | 0.73

CCOC(=O)CCC(=O)OCC + CCCCO
100 kPa
Conditions | viscosity [mPa·s]
303.15 K, x1 = 0.1 | 1.845
308.15 K, x1 = 0.6998 | 1.635
313.15 K, x1 = 0.3 | 1.355
318.15 K, x1 = 0.2001 | 1.245
323.15 K, x1 = 0.8997 | 1.435

CN1CCC[C@H]1c1cccnc1 + CCCCO
100 kPa
Conditions | viscosity [mPa·s]
298.15 K, x1 = 0.3931 | 3.155
303.15 K, x1 = 0.7 | 3.205
313.15 K, x1 = 0.1 | 1.885

NC=O + CCCCO
Conditions | viscosity [mPa·s]
293.15 K, 101 kPa, x1 = 0.1093 | 3.225
298.15 K, 100 kPa, x1 = 0.09212 | 2.58
298.15 K, 100 kPa, x1 = 0.1905 | 2.67
298.15 K, 100 kPa, x1 = 0.2439 | 2.76
298.15 K, 100 kPa, x1 = 0.2798 | 2.82
298.15 K, 100 kPa, x1 = 0.3484 | 2.96
298.15 K, 100 kPa, x1 = 0.4402 | 3.17
298.15 K, 100 kPa, x1 = 0.5809 | 3.46
298.15 K, 100 kPa, x1 = 0.6667 | 3.58
298.15 K, 100 kPa, x1 = 0.7277 | 3.65
298.15 K, 100 kPa, x1 = 0.7869 | 3.66
298.15 K, 100 kPa, x1 = 0.8345 | 3.64
298.15 K, 100 kPa, x1 = 0.8771 | 3.6
298.15 K, 100 kPa, x1 = 0.9257 | 3.53
298.15 K, 100 kPa, x1 = 0.9728 | 3.43

OCCCl + CCCCO
viscosity [mPa·s], 101.33 kPa
Conditions | x1 = 0.097 | x1 = 0.1922 | x1 = 0.2941 | x1 = 0.3928 | x1 = 0.4937 | x1 = 0.5925 | x1 = 0.6943 | x1 = 0.7957 | x1 = 0.8961
298.15 K | 2.59 | 2.593 | 2.597 | 2.616 | 2.641 | 2.672 | 2.702 | 2.731 | 2.781
303.15 K | 2.29 | 2.25 | 2.271 | 2.288 | 2.316 | 2.363 | 2.38 | 2.4 | 2.428
308.15 K | 2.028 | 2.029 | 2.026 | 2.027 | 2.047 | 2.075 | 2.1 | 2.12 | 2.14
